Laboratory results from patent US4818753A, “Synthesis and method of use for 2, 4 diaminoquinazoline” (SRI International, priority 1987, dated 1989).
Values after ≈ are worked out from the molar mass of the structure shown. Where two headings read alike, the source gives them in different places.

Key:
Assay in all cases: Agar dilution assay
Assay type in all cases: cell-based
[1] = tested on: Ca. tropicalis MY1011; conditions: Candida tropicalis, MY1011, 48 h, read-out: Minimum inhibitory concentration
Source text: (§1) For the agar dilution assay, the test panel consisted of 18 yeastlike and 3 Filamentus fungii. Four media were used. These were yeast nitrogen base dextrose (0.5% agar) (YNBDA); pH 5.5; YNBDA with pH adjusted to pH 7.5; and micrological agar (MA), pH 7.0; and Sabouraud dextrose agar, pH 5.7. The media was manufactured by Difco (Detroit, MI) and prepared according to the manufacturer's instructions.
(§2) The test compounds were solubilized in 10% aqueous DMSO; the control drug, Nystatin, was solublized in 10% aqueous DMF. The drugs were serially diluted twofold in sterile water to yield concentrations of 1.28 mg/ml to […]. One ml of diluted drug was added to 9 ml of cooled (50° C.) molten agar in plastic petri plates to yield final drug concentrations in the agar ranging from 128 to 0.063 ug/ml. Appropriate solvent and media control plates were prepared as well, and all plates stored in the dark at 4° C. overnight. The yeast cultures, maintained in yeast maltose (YM; Difco), were transferred to fresh YM medium and incubating overnight at 37° C. with shaking at 250 rpm. After incubation each culture was diluted in sterile saline to yield concentrations of 3×10^5 to 3×10^6 cfu/ml. Isolates of aspergillis and penicillium were made on potato dextrose agar slants, and spore suspensions were made following vigorous shaking with sterile glass beads. The spore preparation were used as inocula for these fungi.
(§3) Each prepared place was inoculated with the 21-member panel using a Denleigh multipoint inoculator (Sussex, England). The inoculator delivers approximately 1 ul to the agar surface, resulting in inoculation of from 3×10^2 to 3×10^3 cfu. The plates were incubated at 28° C. for 48 h, and the minimum inhibitory concentrations (MIC) of each drug were recorded as the lower concentration of the drug permitting no growth or growth of less than 3 cfu/spot.

[2] = tested on: A. flavus MF0383; conditions: Aspergillus flavus, MF0383, 48 h, read-out: Minimum inhibitory concentration
Source text: as §1, §2, §3

[3] = tested on: Sac. cerevisiae MY1027; conditions: Saccharomyces cerevisiae, MY1027, 48 h, read-out: Minimum inhibitory concentration
Source text: as §1, §2, §3

[4] = tested on: Cryptococcus neoformans MY1051; conditions: MY1051, 48 h
Source text: as §1, §2, §3

[5] = tested on: Ca. krusei MY1020; conditions: Pichia kudriavzevii, MY1020, 48 h, read-out: Minimum inhibitory concentration
Source text: as §1, §2, §3

[6] = tested on: Ca. albicans MY1013; conditions: Candida albicans, MY1013, 48 h, read-out: Minimum inhibitory concentration
Source text: as §1, §2, §3

[7] = tested on: Ca. pseudotropicalis MY1040; conditions: Kluyveromyces marxianus, MY1040, 48 h, read-out: Minimum inhibitory concentration
Source text: as §1, §2, §3

[8] = tested on: Penicillium italicum MF2819; conditions: MF2819, 48 h
Source text: as §1, §2, §3

[9] = tested on: Ca. tropicalis MY1012 (Nystatin resistant isolate); conditions: Candida tropicalis, 48 h
Source text: as §1, §2, §3

[10] = tested on: Ca. rugosa MY1022; conditions: Diutina rugosa, MY1022, 48 h, read-out: Minimum inhibitory concentration
Source text: as §1, §2, §3

[11] = tested on: Aspergillus fumigatus MY4839; conditions: MY4839, 48 h
Source text: as §1, §2, §3

[12] = tested on: Ca. parapsilosis MY1010; conditions: Lodderomyces parapsilosis, MY1010, 48 h, read-out: Minimum inhibitory concentration
Source text: as §1, §2, §3

[13] = tested on: Ca. stellatoidea MY1017; conditions: Candida albicans, MY1017, 48 h, read-out: Minimum inhibitory concentration
Source text: as §1, §2, §3

[14] = tested on: Candida albicans MY1058; conditions: MY1058, 48 h
Source text: as §1, §2, §3

[15] = MA pH 7.0, read-out: Minimum inhibitory concentration
[16] = SDA pH 5.7, read-out: Minimum inhibitory concentration
[17] = YNBDA pH 5.5, read-out: Minimum inhibitory concentration
[18] = YNBDA pH 7.5, read-out: Minimum inhibitory concentration

SMILES: CCCCCCCCc1ccc2nc(N)nc(N)c2c1C [2,4-Diamino-5-methyl-6-n-octylquinazoline]
- MIC ([1]; MA pH 7.0): 16 µg/mL (≈ 55.9 µM)
- MIC ([1]; SDA pH 5.7): 128 µg/mL (≈ 447 µM)
- MIC ([1]; YNBDA pH 5.5): > 128 µg/mL
- MIC ([1]; YNBDA pH 7.5): 16 µg/mL (≈ 55.9 µM)
- MIC ([2]; MA pH 7.0): 64 µg/mL (≈ 223 µM)
- MIC ([2]; SDA pH 5.7): > 128 µg/mL
- MIC ([2]; YNBDA pH 5.5): > 128 µg/mL
- MIC ([2]; YNBDA pH 7.5): 16 µg/mL (≈ 55.9 µM)
- MIC ([3]; MA pH 7.0): 4 µg/mL (≈ 14 µM)
- MIC ([3]; SDA pH 5.7): 128 µg/mL (≈ 447 µM)
- MIC ([3]; YNBDA pH 5.5): > 128 µg/mL
- MIC ([3]; YNBDA pH 7.5): 4 µg/mL (≈ 14 µM)
- MIC [4, 15]: 4 µg/mL (≈ 14 µM)
- MIC [4, 16]: 16 µg/mL (≈ 55.9 µM)
- MIC [4, 17]: 128 µg/mL (≈ 447 µM)
- MIC [4, 18]: 8 µg/mL (≈ 27.9 µM)
- MIC ([5]; MA pH 7.0): 8 µg/mL (≈ 27.9 µM)
- MIC ([5]; SDA pH 5.7): > 128 µg/mL
- MIC ([5]; YNBDA pH 5.5): > 128 µg/mL
- MIC ([5]; YNBDA pH 7.5): 8 µg/mL (≈ 27.9 µM)
- MIC ([6]; MA pH 7.0): 16 µg/mL (≈ 55.9 µM)
- MIC ([6]; SDA pH 5.7): 128 µg/mL (≈ 447 µM)
- MIC ([6]; YNBDA pH 5.5): > 128 µg/mL
- MIC ([6]; YNBDA pH 7.5): 16 µg/mL (≈ 55.9 µM)
- MIC ([7]; MA pH 7.0): 4 µg/mL (≈ 14 µM)
- MIC ([7]; SDA pH 5.7): 128 µg/mL (≈ 447 µM)
- MIC ([7]; YNBDA pH 5.5): 128 µg/mL (≈ 447 µM)
- MIC ([7]; YNBDA pH 7.5): 4 µg/mL (≈ 14 µM)
- MIC [8, 15]: 4 µg/mL (≈ 14 µM)
- MIC [8, 16]: 64 µg/mL (≈ 223 µM)
- MIC [8, 17]: 128 µg/mL (≈ 447 µM)
- MIC [8, 18]: 8 µg/mL (≈ 27.9 µM)
- MIC ([9]; pH 5.5, read-out: Minimum inhibitory concentration): 4 µg/mL (≈ 14 µM)
- MIC ([9]; pH 5.7, read-out: Minimum inhibitory concentration): 2 µg/mL (≈ 6.98 µM)
- MIC ([9]; pH 7, read-out: Minimum inhibitory concentration): 2 µg/mL (≈ 6.98 µM)
- MIC ([9]; pH 7.5, read-out: Minimum inhibitory concentration): 4 µg/mL (≈ 14 µM)
- MIC ([10]; pH 5.5, YNBDA pH 5.5): > 128 µg/mL
- MIC ([10]; pH 7, MA pH 7.0): 64 µg/mL (≈ 223 µM)
- MIC ([10]; pH 7.5, YNBDA pH 7.5): 32 µg/mL (≈ 112 µM)
- MIC [11, 15]: 64 µg/mL (≈ 223 µM)
- MIC [11, 16]: > 128 µg/mL
- MIC [11, 17]: > 128 µg/mL
- MIC [11, 18]: 32 µg/mL (≈ 112 µM)
- MIC ([12]; MA pH 7.0): 4 µg/mL (≈ 14 µM)
- MIC ([12]; SDA pH 5.7): > 128 µg/mL
- MIC ([12]; YNBDA pH 5.5): > 128 µg/mL
- MIC ([12]; YNBDA pH 7.5): 8 µg/mL (≈ 27.9 µM)
- MIC ([13]; MA pH 7.0): 16 µg/mL (≈ 55.9 µM)
- MIC ([13]; SDA pH 5.7): 128 µg/mL (≈ 447 µM)
- MIC ([13]; YNBDA pH 5.5): > 128 µg/mL
- MIC ([13]; YNBDA pH 7.5): 16 µg/mL (≈ 55.9 µM)
- MIC [14, 15]: 16 µg/mL (≈ 55.9 µM)
- MIC [14, 16]: > 128 µg/mL
- MIC [14, 17]: > 128 µg/mL
- MIC [14, 18]: 32 µg/mL (≈ 112 µM)
